Results on 16 compounds are retold here after PubChem BioAssay (NCI).

Some test systems named below: MCF7 breast; DU-145 prostate; BT-549 breast; HS 578T breast; T-47D breast.
What all share (assay): NCI anticancer screen, dose series, 48 h

The structures appear in SMILES notation.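 These data come from cells grown in 96-well plates and exposed to compound for 48 hours at five concentrations. GI50 = concentration required for 50% inhibition of growth. TGI: total growth inhibition.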

`C=C1CC[C@@H]2[C@](C)(COC(C)=O)[C@H](OC(C)=O)CC[C@@]2(C)[C@@H]1CC(Nc1ccc(S(=O)(=O)Nc2nccc(C)n2)cc1)C1=CCOC1=O` (stereo partly drawn): the GI50 in the assay on MCF7 breast is 2270 nM; in the assay on DU-145 prostate, 3.36 µM; in the assay on BT-549 breast it was 2300 nM; in the assay on HS 578T breast, 6.65 µM; with T-47D breast it was 2770 nM. The TGI turned out to be 12.5 µM with MCF7 breast; 11.8 µM in the assay on DU-145 prostate; 5.61 µM in the assay on BT-549 breast; 43 µM in the assay on HS 578T breast; 8.33 µM in the assay on T-47D breast.

As to `Cc1nc2sc(C(=O)Nc3ccccc3)c(N)c2cc1C(=O)/C=C/c1ccccc1`, the GI50 was 1530 nM in the assay with MCF7 breast; 1.81 µM with DU-145 prostate; 1710 nM in the assay on BT-549 breast; 2.79 µM in the assay with HS 578T breast; 2480 nM in the assay on T-47D breast. Moreover, the TGI in the assay with MCF7 breast is 5.51 µM; in the assay on DU-145 prostate, 3.6 µM; in the assay with BT-549 breast it was 3.63 µM; in the assay on HS 578T breast it was over 100 µM; with T-47D breast it was 8.2 µM.

For `CC(=O)[O-].CC(=O)[O-].[NH2-].[Pt+2].c1ccc2cnccc2c1`, the GI50 is 11300 nM in the assay with MCF7 breast, 12.2 µM in the assay with DU-145 prostate, 60.4 µM in the assay on HS 578T breast and 1610 nM with T-47D breast. Further, the TGI in the assay on MCF7 breast is 42.8 µM; in the assay with DU-145 prostate, 64.2 µM; in the assay with HS 578T breast it was over 100 µM; in the assay on T-47D breast, 24.7 µM.

Turning to `Nc1cc(N)c(N)cc1N`, the GI50 is 1790 nM in the assay with MCF7 breast, 1.75 µM in the assay with DU-145 prostate, 2.01 µM with HS 578T breast and 4570 nM in the assay on T-47D breast. Besides, the TGI in the assay with MCF7 breast was determined as 3.81 µM; in the assay on DU-145 prostate, 3.18 µM; in the assay on HS 578T breast it was 5.37 µM; in the assay with T-47D breast it was 24.5 µM.

As for `O=NNc1nc(-c2cccnc2)nc2ccccc12`, the TGI in the assay with MCF7 breast, in the assay on DU-145 prostate, in the assay on BT-549 breast, with HS 578T breast and in the assay on T-47D breast was over 100 µM throughout.

For the compound `COc1ccc2c3c(c(=O)n(C)c2c1OC)C=CC(C)(C)O3`, the TGI is over 100 µM in the assay on MCF7 breast; over 100 µM with DU-145 prostate; over 100 µM in the assay with BT-549 breast; 78.4 µM in the assay on HS 578T breast; over 100 µM with T-47D breast.

On to `Nc1nc2c(c(=O)[nH]1)CN(c1ccc(S(N)(=O)=O)cc1)CN2`, for which the TGI with MCF7 breast, in the assay on DU-145 prostate, in the assay on BT-549 breast, with HS 578T breast and with T-47D breast was over 100 µM each time.

As for `CO/N=C(\C)c1ccc(Nc2cc(-c3ccccc3)nc3c(O)cccc23)cc1`, the GI50 in the assay with DU-145 prostate was 14.1 µM; in the assay with BT-549 breast it was 15500 nM; in the assay on HS 578T breast, 18.2 µM; in the assay on T-47D breast, 9070 nM. The TGI with DU-145 prostate was found to be 32 µM; in the assay with BT-549 breast, 32.7 µM; with HS 578T breast, 46.1 µM; in the assay on T-47D breast it was 27.8 µM.

Take `C[C@@H]1COCCN1c1cc(C2(S(C)(=N)=O)CC2)nc(-c2ccnc3[nH]ccc23)n1` (stereo partly drawn): the GI50 in the assay on MCF7 breast was 528 nM; in the assay on DU-145 prostate it was 3.06 µM; with HS 578T breast, 2.77 µM; in the assay on T-47D breast it was 3150 nM. For the same compound, the TGI in the assay with MCF7 breast was 70.2 µM; in the assay with DU-145 prostate it was over 100 µM; in the assay with HS 578T breast, 22.1 µM; with T-47D breast it was 19.5 µM.

On to `C[C@H]1[C@H](C)CC[C@]2(C(=O)O)CC[C@]3(C)C(=CC[C@@H]4[C@@]5(C)C/C(=C/c6cccnc6)[C@H](O)C(C)(C)[C@@H]5CC[C@]43C)[C@H]12`, for which the GI50 with MCF7 breast was 12100 nM; in the assay with DU-145 prostate it was 15.4 µM; in the assay on BT-549 breast, 18300 nM; with HS 578T breast, 28.8 µM; in the assay with T-47D breast, 9880 nM. Also, the TGI in the assay on MCF7 breast, with DU-145 prostate, with BT-549 breast, in the assay on HS 578T breast and in the assay on T-47D breast was over 100 µM in each case.

`CC(=O)OCC1OC(n2ccc(=O)[nH]c2=O)C(OC(C)=O)C1OC(C)=O` (stereo not drawn): the GI50 in the assay on MCF7 breast is over 100000 nM; with DU-145 prostate it was over 100 µM; with BT-549 breast, over 100000 nM; in the assay with HS 578T breast, over 100 µM; in the assay with T-47D breast, over 100000 nM. For the same compound, the TGI in the assay on MCF7 breast, in the assay on DU-145 prostate, with BT-549 breast, with HS 578T breast and in the assay with T-47D breast was over 100 µM throughout.

Regarding `C=C1C(=O)O[C@H]2[C@H]1CC/C(COC(=O)N1CCC[C@H]1C(=O)Nc1ccc(OC)c(C(N)=O)c1O)=C\CC[C@@]1(C)O[C@@H]21`, the GI50 in the assay on MCF7 breast is 2380 nM; in the assay on DU-145 prostate, 3.95 µM; in the assay with BT-549 breast, 1620 nM; in the assay with HS 578T breast it was 17.9 µM; in the assay with T-47D breast it was 2420 nM. The TGI in the assay with MCF7 breast is 9.55 µM; in the assay with DU-145 prostate, 14.5 µM; in the assay on BT-549 breast, 5.12 µM; in the assay on HS 578T breast it was over 100 µM; with T-47D breast it was 6.7 µM.

Regarding `Fc1cccc(COc2ccc(Nc3ncnc4cc(-c5ccc[nH]5)sc34)cc2Cl)c1`, the GI50 in the assay on MCF7 breast is 80.2 nM; in the assay on DU-145 prostate, 3.34 µM; in the assay on BT-549 breast it was 977 nM; in the assay on HS 578T breast, 4.53 µM; with T-47D breast, 97.7 nM. Further, the TGI with MCF7 breast is 2.76 µM; in the assay on DU-145 prostate it was over 16.4 µM; in the assay on BT-549 breast it was 14.9 µM; with HS 578T breast, 21.2 µM; in the assay with T-47D breast, 7.35 µM.

On to `CCc1cc(O)c(Cl)c(C)c1Cl`, for which the TGI in the assay on MCF7 breast is 61.6 µM; in the assay on DU-145 prostate it was 31.2 µM; in the assay on BT-549 breast, 36 µM; in the assay on HS 578T breast it was 67.7 µM; in the assay with T-47D breast it was over 100 µM.

`COc1ccc(-c2cn(-c3ccccc3)c(-c3ccccc3)n2)cc1OC`: the GI50 is 2720 nM with MCF7 breast; 2.9 µM in the assay on DU-145 prostate; 2860 nM with BT-549 breast; 5.68 µM in the assay on HS 578T breast; 1750 nM with T-47D breast. Besides, the TGI is 13.1 µM in the assay with MCF7 breast; 7.92 µM in the assay on DU-145 prostate; 18.5 µM with BT-549 breast; over 100 µM in the assay on HS 578T breast; 20.2 µM with T-47D breast.

As for `NC(C(=O)[O-])C(=O)[O-].NC1CCCCC1N.[Pt+4]`, the GI50 was 1710 nM with MCF7 breast, over 100000 nM in the assay on BT-549 breast and over 100 µM in the assay on HS 578T breast. Besides, the TGI is 5.49 µM with MCF7 breast, over 100 µM in the assay with BT-549 breast and over 100 µM in the assay with HS 578T breast.
